Columns and labels:
[1] = system: rArU (AU homopolynucleotide) (RNA, polymer) A/U; assay: UV thermal melting at 260 nm; conditions: Na+ (sodium cacodylate, I = 0.05 mol dm^-3); sodium cacodylate buffer pH 7.0; r = [compound]/[polynucleotide] = 0.1; per base
[2] = system: rArU (AU homopolynucleotide) (RNA, polymer) A/U; assay: fluorescence titration, Scatchard equation; conditions: Na+ (sodium cacodylate, I = 0.05 mol dm^-3); sodium cacodylate buffer pH 7.0, 25 °C; RNA concentration as phosphates; per base

ΔTm [1] [°C] | logKa [2] | Structure (SMILES)
1.1 ± 0.5 | 8.6 | CN(C)CCCNc1ccc2cc3cc(C#N)c4nc5ccccc5n4c3nc2c1
4.9 ± 0.5 | 7.9 | N#Cc1cc2cc3ccc(N4CCNCC4)cc3nc2n2c1nc1ccccc12
